Experimental data as given in PubChem BioAssay AID1033 (Sanford-Burnham Center for Chemical Genomics, 2008).
Activity calls are given as the source filed them. How the calls were made is not given here.

molecular target: Chaperone protein DnaK (Escherichia coli (strain K12)) (UniProt P0A6Y8); assay: E. coli DnaK SBD ligand binding – biophysical, NMR, chaperone (AID 1033); settings: Purified DnaK SBD
Sequence (P0A6Y8 whole entry, looked up): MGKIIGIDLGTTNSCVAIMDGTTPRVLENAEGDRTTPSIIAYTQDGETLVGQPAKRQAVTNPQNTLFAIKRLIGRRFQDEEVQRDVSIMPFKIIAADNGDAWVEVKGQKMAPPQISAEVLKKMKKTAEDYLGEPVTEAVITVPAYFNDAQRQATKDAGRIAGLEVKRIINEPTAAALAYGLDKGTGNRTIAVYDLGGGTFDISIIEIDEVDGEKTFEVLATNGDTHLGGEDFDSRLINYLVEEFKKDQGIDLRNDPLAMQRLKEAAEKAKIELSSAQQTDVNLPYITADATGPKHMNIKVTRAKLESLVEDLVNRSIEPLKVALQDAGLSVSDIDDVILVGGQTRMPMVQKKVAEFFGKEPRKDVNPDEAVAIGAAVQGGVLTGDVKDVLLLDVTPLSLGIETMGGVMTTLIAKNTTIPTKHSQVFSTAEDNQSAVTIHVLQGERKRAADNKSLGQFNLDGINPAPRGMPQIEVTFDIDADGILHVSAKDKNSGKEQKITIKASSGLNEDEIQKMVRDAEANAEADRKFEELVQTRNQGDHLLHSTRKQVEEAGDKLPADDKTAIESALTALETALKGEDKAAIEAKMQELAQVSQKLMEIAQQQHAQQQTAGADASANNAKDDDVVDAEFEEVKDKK

Row | Structure (SMILES) | Kd
1 | O=C1C2=C(SCCS2)C(=O)N1CCCO | > 4 mM (inactive)
2 | O=C(NN=C1CCCC1)c1ccncc1 | > 4 mM (inactive)
3 | O=C1CSC2=NCCCN12 | > 4 mM (inactive)
4 | O=C(O)CC12CC3CC(CC(O)(C3)C1)C2 | > 4 mM (inactive)
5 | Cc1cccc(-n2c(N)cc(=O)[nH]c2=S)c1C | > 4 mM (inactive)
6 | Cc1cc(C)n2nc(N)nc2n1 | > 4 mM (inactive)
7 | Cc1cccc(CO)n1 | > 4 mM (inactive)
8 | NC(=O)CSc1nc2ccccc2o1 | > 4 mM (inactive)
9 | Nc1ncnc2c1ncn2CCN1CCOCC1 | > 4 mM (inactive)
10 | Cc1cc(C)n(-c2ccc(N)cc2)n1 | > 4 mM (inactive)
11 | O=CN1CCN(C(=O)c2ccc(F)cc2)CC1 | > 4 mM (inactive)
12 | O=c1cc(CO)oc(CN2CCCCC2)c1O | > 4 mM (inactive)
13 | CS(C)=C1C(=O)NC(=O)N(Cc2ccc(F)cc2)C1=O | > 4 mM (inactive)
14 | COc1cc2c(cc1OC)[C@@H]1C(=O)c3ccc(OC)c(CC=C(C)C)c3O[C@@H]1CO2 | > 4 mM (inactive)
15 | COC(=O)[C@]1(C)CC[C@]2(C)CC[C@]3(C)C4=CCc5c(cc(O)c(O)c5C)[C@]4(C)CC[C@@]3(C)C2C1 (stereo not given in full) | > 4 mM (inactive)
16 | CCNS(=O)(=O)c1ccc(OC)c(C)c1 | > 4 mM (inactive)
17 | Cc1ccc2c(c1)CCCN2C(=O)c1ccncc1 | > 4 mM (inactive)
18 | O=c1[nH]c(CN2CCN(CCO)CC2)nc2ccccc12 | > 4 mM (inactive)
19 | O=C1CCNc2cc3ccccc3cc21 | > 4 mM (inactive)
20 | Cc1nn(CC(=O)Nc2ccccn2)c(=O)c2ccccc12 | > 4 mM (inactive)
21 | c1ccc2[nH]c(CCn3cncn3)nc2c1 | > 4 mM (inactive)
22 | O=C(NCc1cccc(Cl)c1)c1cccnc1 | > 4 mM (inactive)
23 | O=C(O)CCCCCCCCCCCCC1C=CCC1 (stereo not given) | > 4 mM (inactive)

Row | Structure (SMILES) | Kd
24 | Cc1cc(=O)cc(C)n1-c1ccccc1N | > 4 mM (inactive)
25 | O=C(Nc1ccc2c(c1)OCCO2)c1ccncc1 | > 4 mM (inactive)
26 | O=c1[nH]nc(Cc2ccccn2)c2ccccc12 | > 4 mM (inactive)
27 | Cc1nnc(NCc2ccc3c(c2)OCO3)[nH]c1=O | > 4 mM (inactive)
28 | COc1ccc(S(=O)(=O)NCCO)cc1 | > 4 mM (inactive)
29 | Cc1cc(OC(=O)c2c(C)cc(O)cc2O)cc(O)c1C(=O)O | > 4 mM (inactive)
30 | CC[C@]12CCCN3CCc4c(n(c5ccccc45)[C@](O)(C(=O)OC)C1)[C@@H]32 | > 4 mM (inactive)
31 | O=c1[nH]cc(N2CCCCC2)c(=O)[nH]1 | > 4 mM (inactive)
32 | CN(C)c1ccc2c(=O)[nH][nH]c(=O)c2c1 | > 4 mM (inactive)
33 | COC(=O)NCc1cc2cc(Cl)ccc2[nH]1 | > 4 mM (inactive)
34 | O=C(CC1NCCNC1=O)Nc1ccccc1 (stereo not given) | > 4 mM (inactive)
35 | O=C(O)CCCNC(=O)c1ccccc1C(=O)O | > 4 mM (inactive)
36 | Cn1c(=O)n(-c2cccc(Cl)c2)c(=O)n1C | > 4 mM (inactive)
37 | COc1ccc(C2NC(C(=O)O)CS2)cc1 (stereo not given) | > 4 mM (inactive)
38 | CC(C)CCCC(C)C1CCC2C3CC(=O)[C@H]4C[C@@H](O)CC[C@]4(C)C3CC[C@]12C (stereo not given in full) | > 4 mM (inactive)
39 | N#CCSc1nc2ccccc2c(=O)n1-c1ccccc1 | > 4 mM (inactive)
40 | Cc1ccc(C(O)c2nccn2C)o1 (stereo not given) | > 4 mM (inactive)
41 | O=C(O)C1COc2ccccc2O1 (stereo not given) | > 4 mM (inactive)
42 | O=C1N=c2ccccc2=C1c1[nH]c(=S)[nH]c1O | > 4 mM (inactive)
43 | O=C1c2cccnc2C(=O)N1Cc1ccco1 | > 4 mM (inactive)
44 | O=C(Nc1ccc2c(c1)OCCO2)c1c(F)cccc1F | > 4 mM (inactive)
45 | O=C(CSc1ccnc(=O)[nH]1)NCc1ccco1 | > 4 mM (inactive)
46 | Cc1ccc(-n2nnnc2SCC(N)=O)c(C)c1 | > 4 mM (inactive)

Row | Structure (SMILES) | Kd
47 | NC(=O)NC(=O)Nc1ccc(Cl)cc1 | > 4 mM (inactive)
48 | Oc1ccccc1C(=S)N1CCCCCC1 | > 4 mM (inactive)
49 | CC(=O)Nc1cccc(NC(=O)c2cccnc2)c1 | > 4 mM (inactive)
50 | CN1CCC[C@H]1c1cccnc1 | > 4 mM (inactive)
51 | CC(=O)O[C@H]1CC[C@@]2(C)C(=CC(=O)C3C4CCC(C(C)CCCC(C)C)[C@@]4(C)CCC32)C1 (stereo not given in full) | > 4 mM (inactive)
52 | COc1cc2c(cc1O)CCNC2C (stereo not given) | > 4 mM (inactive)
53 | CC(=O)NC(=S)Nc1ccc(S(N)(=O)=O)cc1 | > 4 mM (inactive)
54 | COc1ccc2c(c1)OCC(Cc1ccc(OC)c(OC(C)=O)c1)C2=O (stereo not given) | > 4 mM (inactive)
55 | Cc1cc(C)nc(/N=C(/N)N2CCN(C)CC2)n1 | > 4 mM (inactive)
56 | CCNC(=S)Nc1c(C)n(C)n(-c2ccccc2)c1=O | > 4 mM (inactive)
57 | CCNC(=O)CC[C@H](N)C(=O)O | > 4 mM (inactive)
58 | NC(=O)CCn1c(=O)oc2ccccc21 | > 4 mM (inactive)
59 | O=C(O)c1cncc(-c2cccs2)c1 | > 4 mM (inactive)
60 | Cc1csc(NC(=O)c2ccoc2C)n1 | > 4 mM (inactive)
61 | Clc1ccc(SCCn2cncn2)cc1 | > 4 mM (inactive)
62 | O=C1c2ccncc2C(=O)N1CO | > 4 mM (inactive)
63 | O=C(/C=C/c1ccc(O)c(O)c1)O[C@@H]1C[C@](O)(C(=O)O)C[C@@H](O)[C@H]1O | > 4 mM (inactive)
64 | CC(C)NC(=O)c1nc2ccccc2s1 | > 4 mM (inactive)
65 | CC(=O)O[C@@H]1C[C@@]2(C)[C@H](c3ccoc3)C[C@H]3O[C@]32[C@]2(C)C(=O)C(O)=C3C(C)(C)C(=O)C=C[C@]3(C)C12 (stereo not given in full) | > 4 mM (inactive)
66 | O=C(O)CCC1=C2c3ccccc3CCN2C(=O)CC1 | > 4 mM (inactive)
67 | CC(C)=CCC/C(C)=C/CC/C(C)=C/CC/C(C)=C/CC/C(C)=C/CC/C(C)=C/CC/C(C)=C/CC/C(C)=C/CC/C(C)=C/CO | > 4 mM (inactive)
68 | O=C1C2CCCCC2C(=O)N1Cc1cccnc1 (stereo not given) | > 4 mM (inactive)
69 | OC1CCC(C(F)(F)F)CC1 (stereo not given) | > 4 mM (inactive)

Row | Structure (SMILES) | Kd
70 | CP(C)(=O)c1cccc(C(=O)O)c1 | > 4 mM (inactive)
71 | CC(=O)O[C@H]1CCC2(C)C3=C(CCC2C1(C)C)[C@@]1(C)CC[C@@H](C(C)CCC=C(C)C)[C@]1(C)CC3 (stereo not given in full) | > 4 mM (inactive)
72 | O=C(O)c1cc(F)cc2c1OCOC2 | > 4 mM (inactive)
73 | O=c1[nH]c(=O)c2[nH]cnc2[nH]1 | > 4 mM (inactive)
74 | CC(=O)NCc1nc2ccccc2[nH]1 | > 4 mM (inactive)
75 | CC(=O)Oc1ccc2c(c1OC(C)=O)OCC1(O)Cc3c(cc(OC(C)=O)c(OC(C)=O)c3OC(C)=O)C21 (stereo not given) | > 4 mM (inactive)
76 | COc1ccc(-c2ccc(SCC(N)=O)nn2)cc1 | > 4 mM (inactive)
77 | CN(C)S(=O)(=O)c1ccccc1C#N | > 4 mM (inactive)
78 | O=C(CSc1ncccn1)Nc1nccs1 | > 4 mM (inactive)
79 | CCn1cnc2cc(NCc3ccncc3)ccc21 | > 4 mM (inactive)
80 | Nc1nc(SCc2ccccc2)ns1 | > 4 mM (inactive)
81 | CC(=O)Oc1cc(OC(C)=O)c2c(c1)O[C@H](c1ccc(OC(C)=O)c(OC(C)=O)c1)[C@H](OC(C)=O)C2 | > 4 mM (inactive)
82 | CSc1ccccc1NC(=O)c1cnccn1 | > 4 mM (inactive)
83 | Cc1cccc(NC(=O)c2ccc(=O)[nH]n2)c1 | > 4 mM (inactive)
84 | Nc1ccc2sccc2c1 | > 4 mM (inactive)
85 | Nc1ccc(CCC(=O)O)cc1 | > 4 mM (inactive)
86 | NC(=O)C1CCN(Cc2ccccc2)CC1 | > 4 mM (inactive)
87 | NCc1ccc(-c2ccccn2)s1 | > 4 mM (inactive)
88 | CCOc1ccc(N2C(=O)CCC2=O)cc1 | > 4 mM (inactive)
89 | CC(=O)O[C@@H]1CC2C(C)(C)C(=O)C=C[C@]2(C)C2CC[C@]3(C)C(=CC(=O)O[C@H]3c3ccoc3)[C@@]21C (stereo not given in full) | > 4 mM (inactive)
90 | O=C(O)CCc1c[nH]c2ccccc12 | > 4 mM (inactive)
91 | Nc1cc(F)ccc1-n1ccnc1 | > 4 mM (inactive)
92 | COc1ccc(CN2CCNC(=O)C2CC(=O)O)cc1C (stereo not given) | > 4 mM (inactive)

Row | Structure (SMILES) | Kd
93 | CSc1ccc2nnc(-c3cccnc3)n2n1 | > 4 mM (inactive)
94 | O=c1c(Cl)c(NCCO)ncn1-c1ccccc1 | > 4 mM (inactive)
95 | O=C(O)Cn1c(C(F)(F)F)nc2ccccc21 | > 4 mM (inactive)
96 | CC(=O)O[C@@H]1CC2C(C)(CC[C@H](O)C2(C)C)C2CC[C@]3(C)C(=CC(=O)O[C@H]3c3ccoc3)C21C (stereo not given in full) | > 4 mM (inactive)
97 | CC(C)(O)P(C)(=O)c1ccccc1 (stereo not given) | > 4 mM (inactive)
98 | O=C1CCC(=O)N1c1nc2ccccc2s1 | > 4 mM (inactive)
99 | NC(=O)CSc1nnc(-c2cccnc2)o1 | > 4 mM (inactive)
100 | CSc1nc(-c2ccccc2)ccc1C(N)=O | > 4 mM (inactive)
101 | Cn1c(CN2CC(c3ccccc3)CC2=O)n[nH]c1=S (stereo not given) | > 4 mM (inactive)
102 | COC(=O)C[C@H]1C(C)(C)C(OC(C)=O)[C@]2(O)C=C3C(CC[C@]4(C)C3CC(=O)O[C@H]4c3ccoc3)C1(C)C2=O (stereo not given in full) | > 4 mM (inactive)
103 | CC(=O)O[C@H]1CC[C@@]2(C)C(CC[C@]3(C)C2C(=O)C=C2C4[C@@H](C)[C@H](C)CC[C@]4(C(=O)O)CC[C@]23C)C1(C)C (stereo not given in full) | > 4 mM (inactive)
104 | COc1cc(O)c2c(c1)C(=O)c1cc(C)cc(O)c1C2=O | > 4 mM (inactive)
105 | CC(=O)NN1C(=O)c2cccc3cccc(c23)C1=O | > 4 mM (inactive)
106 | Cc1cc(C)nc(/N=C(\N)N2CCc3ccccc32)n1 | > 4 mM (inactive)
107 | O=C1CC(=O)N(c2ccccc2)C(=O)N1 | > 4 mM (inactive)
108 | CC(C)(C)Cc1nc(-c2ccccn2)no1 | > 4 mM (inactive)
109 | NC(=O)C1CCN(C(=O)c2ccccc2F)CC1 | > 4 mM (inactive)
110 | CCOC(=O)c1[nH]c(C)cc1C | > 4 mM (inactive)
111 | O=C(O)c1ccc(N2CCOCC2)cc1 | > 4 mM (inactive)
112 | Cc1ccnc(NS(=O)(=O)c2ccccc2)n1 | > 4 mM (inactive)
113 | O=C(Nc1ccc(N2CCCC2=O)cc1)c1cccc(F)c1 | > 4 mM (inactive)
114 | O=C1Nc2ccccc2C1(O)Cc1ccncc1 (stereo not given) | > 4 mM (inactive)
115 | Cc1nc(-c2ccccc2)sc1CO | > 4 mM (inactive)
